Source: patent publication US12152046B2, “Oleic acid derivatives, pharmaceutical composition or food composition comprising said oleic acid derivatives, and their uses” (UNIVERSITÉ DE BOURGOGNE, priority 2018, dated 2024)
“Also recorded” adds a separate entry of the source.

Assays:
[1] = tested on: mouse taste bud cells; assay: Ca2+ signaling (Fura-2/AM, F340/F380) in mouse taste bud cells; assay type: cell-based; settings: for fat taste receptor(s) through which the compound acts: Ca2+ signaling with SSO or AH7614; for increase in intracellular free calcium concentration [Ca2+]i (F340/F380): mouse taste bud cells loaded with Fura-2/AM
Description: The technique to isolate taste bud cells from mouse fungiform papillae has been described in the publication of El-Yassimi A, Hichami A, Besnard P, Khan N A. “Linoleic acid” induces calcium signaling, Src kinase phosphorylation, and neurotransmitter release in mouse CD36-positive gustatory cells”—J. Biol. Chem. 2008 May 9, 283(19), 12949-59.
Briefly, lingual epithelium was separated by enzymatic dissociation which contained the following: elastase and dispase mixture, 2 mg/ml each, in Tyrode's buffer (120 mM NaCl; 5 mM KCl; 10 mM HEPES ((4-(2-hydroxyethyl)-1-piperazineethanesulfonic acid); 1 mM CaCl2); 1 mM MgCl2; 10 mM glucose; 10 mM Na pyruvate, pH 7.4). The taste bud cells were isolated by incubating lingual epithelium in RPMI 1640 medium containing 2 mM EDTA, 1.2 mg/ml elastase, 0.6 mg/ml collagenase (type I), and 0.6 mg/ml trypsin inhibitor at 37° C. for 10 minutes, followed by centrifugation (600 g, 10 minutes). The cell populations, after separation, were suspended in fresh RPMI 1640 medium containing 10% fetal calf serum, 200 U/ml penicillin, and 0.2 mg/ml streptomycin, seeded onto a Poly-D-Lysine-coated dishes, and cultured for 24 hours. At the end of this period, the cells were used for the experiments or stained with trypan blue to assess their viability.
(§1) The mouse taste bud cells were seeded in 24-well plates (with glass bottom), containing poly-D-lysine for better adhesion to the surface. After 24 h, taste cells were incubated for 45 minutes with a fluorescent probe, Fura-2/AM (1 μM) in calcium buffer (110 mM NaCl, 5.4 mM, KCl, 25 mM, NaHCO3, 0.8 mM, MgCl2, 0.4 mM, KH2PO4, 20 mM, Hepes-Na, 0.33 mM, NaHPO4, 1.2 mM, CaCl2), pH 7.4). Then, the cells are washed with phosphate buffer saline (PBS) and taken up in calcium buffer.
The changes in intracellular Ca^2+ (F340/F380) were monitored under a Nikon microscope (TiU) by using an S Fluor 40× oil immersion objective.
(§2) Especially, the increases in [Ca^2+]i were measured as follows: the mice taste bud cells were cultured on Willico-Dish wells with a glass bottom and loaded with a fluorescent probe, Fura-2/AM. The changes in intracellular Ca^2+ (F340/F380) were monitored under the Nikon microscope (TiU) by using S-fluor 40× oil immersion objective. The planes were taken at Z intervals of 0.3 μm, and NIS-Elements software was used to deconvolve the images. The microscope was equipped with EM-CCD (Lucas) camera for real time recording of 16-bit digital images. The dual excitation fluorescence imaging system was used for studies of individual cells. The changes in intracellular Ca^2+ were expressed as ΔRatio, which was calculated as the difference between the peak F340/F380 ratio. The data were summarized from the large number of individual cells (20-40 cells in a single run, with 3-9 identical experiments done in at least three cell preparations). The results were analyzed with the NIS-elements software, the variation in [Ca^2+]i is expressed as A ratio (F340/F380) which was calculated with the difference of spectra at two wavelengths, i.e., 340 nm and 380 nm.

[2] = target: T1, CD36 (Mus musculus, UniProt Q08857); assay: Ca2+ signaling in mouse taste bud cells in presence or absence of the CD36 inhibitor SSO; assay type: cell-based; settings: for action of the CD36 inhibitor SSO on the increase in [Ca2+]i induced by the compound: 20 μM SSO, mouse taste bud cells, Fura-2/AM; for CD36 agonist character: concluded from suppression by SSO
T1 construct: freshly isolated and primary cultured mice type II taste bud cells (expressing GPR120 and CD36) are used; endogenous in cells; host or cells: primary mouse taste bud cells from fungiform papillae
T1 sequence (Q08857 whole entry): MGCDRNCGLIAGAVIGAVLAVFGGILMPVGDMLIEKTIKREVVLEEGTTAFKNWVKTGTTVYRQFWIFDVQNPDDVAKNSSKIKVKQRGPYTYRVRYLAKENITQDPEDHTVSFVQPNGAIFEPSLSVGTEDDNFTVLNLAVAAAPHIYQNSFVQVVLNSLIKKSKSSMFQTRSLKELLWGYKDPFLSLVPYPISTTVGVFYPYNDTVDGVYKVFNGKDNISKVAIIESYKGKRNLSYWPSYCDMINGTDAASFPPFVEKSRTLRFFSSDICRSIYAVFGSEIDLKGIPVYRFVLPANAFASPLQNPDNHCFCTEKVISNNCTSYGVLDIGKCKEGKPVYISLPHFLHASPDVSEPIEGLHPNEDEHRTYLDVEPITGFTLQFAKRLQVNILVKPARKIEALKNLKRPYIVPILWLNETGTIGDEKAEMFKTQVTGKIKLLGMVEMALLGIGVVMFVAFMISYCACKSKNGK
Description: as §1, §2
CD36: in order to assess if the oleic acid derivatives according to the invention exert their actions via CD36, the sulfo-N-succinimidyl oleate (SSO) was used. SSO is a CD36 inhibitor/blocker/antagonist.
Experiments were performed in the presence or absence of SSO with respect to calcium signaling to verify whether our analogs act well via this lipid receptor. Especially, for this assay with compounds 3a, 2a and oleic acid (control) were tested.

[3] = target: T2, GPR120 (Mus musculus, UniProt Q7TMA4); assay: Ca2+ signaling in mouse taste bud cells in presence or absence of the GPR120 antagonist AH7614; assay type: cell-based; settings: AH7614 20 μM, compound at 50 μM, cells pre-incubated 15 minutes
T2 construct: freshly isolated and primary cultured mice type II taste bud cells (expressing GPR120 and CD36) are used; endogenous in cells; host or cells: primary mouse taste bud cells from fungiform papillae
T2 sequence (Q7TMA4 1-361): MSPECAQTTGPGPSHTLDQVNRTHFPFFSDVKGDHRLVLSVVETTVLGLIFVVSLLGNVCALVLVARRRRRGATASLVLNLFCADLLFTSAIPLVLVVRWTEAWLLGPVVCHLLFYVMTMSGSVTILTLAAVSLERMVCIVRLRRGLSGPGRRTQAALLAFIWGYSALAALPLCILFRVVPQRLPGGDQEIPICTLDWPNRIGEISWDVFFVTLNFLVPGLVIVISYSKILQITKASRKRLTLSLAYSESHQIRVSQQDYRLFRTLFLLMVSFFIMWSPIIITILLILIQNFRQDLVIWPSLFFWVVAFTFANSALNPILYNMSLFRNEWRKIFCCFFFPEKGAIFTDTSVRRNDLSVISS
Description: as §1
as §2, with “The microscope was equipped with EM-CCD (Lucas) camera for real time recording of 16-bit digital images.” left out, “The data were summarized from the large number of individual cells (20-40 cells in a single run, with 3-9 identical experiments done in at least three cell preparations).” left out, “nm. […]” for “nm.”

[4] = tested on: mice; assay: Two-bottle preference test; assay type: in vivo, mouse; settings: for gustatory preference versus control solution (xanthan gum) / concentration preferred (optimal preference) in two-bottle preference test: 12 hours; for gustatory preference versus control solution (xanthan gum): 10 to 100 μM; for concentration preferred (optimal preference) in two-bottle preference test: versus xanthan gum control
Description: Eight weeks old, male mice (C57BI/6 black) were purchased from the “Janvier Elevage” (Le Mans) and used for these experiments.
The mice are placed individually in cages in a controlled environment (humidity and constant temperature) and have free access to a standard diet. 6 hours before the tests, the mice are deprived of water.
During the behavioral experiments, the mice were offered two bottles simultaneously for 12 hours (night period).
The mice are subjected to a choice between the “control” solution and the experimental solution (FIG. 4 and FIG. 5). • control solutions contain 0.3% xanthan gum, w/v, (Sigma Life Science, USA) in water to reproduce lipid texture and minimize bias due to differences in appearance between the two bottles; • the experimental solution contains, either the “test compound” according to the invention at a concentration varying from 10 to 100 μM (compound 3a, FIG. 4 or compound 2a, FIG. 5) or only xanthan gum at […] (control test). To avoid the preference for one side, the position of each bottle is changed during each test.
To estimate the consumption of control and experimental solutions, the bottles are weighed before and after each experiment. The mice are allowed to take rest for 48 hours between each experiment.

[5] = tested on: obese C57BL/6J mice; assay: Diet-induced obesity, body weight on high-fat diet; assay type: in vivo, mouse; settings: for body weight in obese mice: HFD 28 weeks, analogue 75 μM in feeder bottles from 10th week, versus HFD only
Description: C57BL/6J male mice, aged between 6 to 10 weeks (16-20 g), were obtained from Janvier Labs (France). They were housed individually in a controlled environment with a 12 h light/dark cycle with food (SAFE, France) and water ad libitum. The palm oil (Huilerie Vigean, France) was the main fat component in high-fat diets. The high-fat diet was prepared weekly and stored at 4° C. until further use. The study was conducted as per Declaration of Helsinki and European ethical guidelines for the care and use of animals for experimentation. All the experimental protocols (protocol number: 16158) were approved by the Regional Ethical Committee of the University of Burgundy (Dijon, France).
The mice were grouped at random (n=10/group) and fed with either of the following diets: standard diet (STD) or high-fat diet (HFD). The body weight, food, and water intake were measured, weekly.
(§3) After 10 weeks of feeding the diets, obese animals were divided into two groups: one groups continued to be fed on the same HFD; however, another group was fed on the same diet and received either NKS-3 or NKS-5) until 28th of weeks of experimentation. At the end, the animals were sacrificed, under a fasting condition, and used for different analysis in blood and different tissues.
In order to elucidate the beneficial effects and especially during obesity, experiments were conducted on obese C57BL/6J mice. […] In order to test the curative/interventional effects on obesity, the animals were divided into two groups: one group that consumed only the high-fat diet (HFD) and the other consuming the same diet and also receiving 3a or 2a in ad libitum baby bottles/feeders. From the 10th week of the diet, we introduced lipid analogues into the bottles at 75 μM that corresponded to their preference in the double choice test. […] In addition, the decrease in obesity was maintained until the 28th week of feeding a HFD (FIGS. 6A and 6B). The study was stopped after the 28th week of the diet because the animals reached the age of 34 weeks and beyond that age, the aging factor may interfere with the growth.

[6] = tested on: C-reactive protein (CRP); assay: CRP concentration in sera of obese mice; assay type: in vivo, mouse; settings: obese mice on HFD, versus HFD only
Description: as §3
The CRP concentration was determined in sera by an automatic analyzer (Gilford Model 2000 system, a Beckman System T.R).

Compound	fat taste receptor(s) through which the compound acts [1]	increase in intracellular free calcium concentration [Ca2+]i (F340/F380) [1]	action of the CD36 inhibitor SSO on the increase in [Ca2+]i induced by the compound [2]	CD36 agonist character [2]	effect of the GPR120 inhibitor AH7614 on the increase in [Ca2+]i induced by the compound [3]	gustatory preference versus control solution (xanthan gum) [4]	concentration preferred (optimal preference) in two-bottle preference test [4]	body weight in obese mice [5]	anti-obesity effect, comparison of the two analogues ([5]; HFD, 75 μM in feeder bottles)	concentration of circulating CRP [6]	action of the CD36 inhibitor SSO on the increase in [Ca2+]i induced by the compound ([2]; listed as OA)	concentration preferred in two-bottle preference test [4]
CCCCCCCC/C=C\CCCCCCCC(=O)OCC1(C)COC1 [Compound 2a, (Z)-(3-methyloxetan-3-yl)methyl octadec-9-enoate]	bounds to CD36; also recorded: acts on both receptors CD36 and GPR120	rapid and significant rise in calcium signaling; also recorded: huge increase	partially blocked; also recorded: curtailed, but not completely suppressed	partial agonist	significantly curtailed, but not suppressed	spontaneous preference	75 µM	significant decrease in body weight	more powerful than 3a	significantly decreased	–	–
CCCCCCCC/C=C\CCCCCCCCP(=O)(OCC)OCC [Compound 3a, diethyl (Z)-octadec-9-en-1-yl phosphonate]	acts both to CD36 and GPR120	rapid and significant rise in calcium signaling; also recorded: huge increase	completely blocked; also recorded: completely suppressed	complete CD36 agonist	–	spontaneous preference	75 µM	significant decrease in body weight	–	significantly decreased	–	–
CCCCCCCC/C=C\CCCCCCCC(=O)O [oleic acid]	–	rapid and significant rise in calcium signaling	–	–	–	–	–	–	–	–	completely blocked; also recorded: partially blocked	7.7 mM
